# Measurements from US7179831B2, “5-[3-(4-benzyloxyphenylthio)-fur-2-yl]-imidazolidin-2, 4-dione and analogues as inhibitors of macrophage elastase” (Quest Pharmaceutical Services, priority 2004, dated 2007).
# Target: T1, MMP-9 (Homo sapiens, UniProt P14780)
# T1 construct: All the enzymes are recombinant human active domains from E. coli (Biomol); purchased Biomol; host or cells: E. coli
# Test: MMP inhibitory assay, fluorescent substrate, MMP-9
# Format: biochemical
# Settings: recombinant human active domain, substrate 4 uM, room temperature
# Protocol: (§1) The enzymatic activities of MMPs were assayed according to manufacture protocols (Biomol Reseaerch Laboratory, Inc. E-mail: info@biomol.com). All the enzymes are recombinant human active domains from E. coli (Biomol). The fluorescent substrate has the sequence of (7-methoxycoumarin-4-yl) acetyl-Pro-Leu-Gly-Leu-N-3-(2,4-dinitrophenyl)-L-α,β-diaminopropionyl-Ala-Arg-NH2.AcOH. All the assays were conducted at room temperature with 96 well flat bottom black plate (Nalge Nunc International, Catalog number, 465200). Briefly, certain amount of enzyme in 89 ul of assay buffer (50 mM Hepes, 10 mM CaCl2, 0.05% Brij 35, pH 7.5) was incubated with (7 concentration per set) or without inhibitor (in 1 ul of DMSO, or 1 ul DMSO only) for 20 min. Then the enzymatic reaction was initiated by the addition of the substrate (40 uM in 10 ul of assay buffer and the final concentration of the substrate is 4 uM). The activity was determined by measuring the fluorescence at Ex/Em=328 nm/393 nm and it was linear within 2 hrs. The fluorescence was read at 0 and 20 or 40 min. The reading at 0 time would be considered as the background and subtracted from the final reading. The IC50 was obtained by plotting the fluorescences versus the concentrations of the inhibitors of each assay with Prism software. […] Mechanism studies reveal that the inhibitors are competitive. For competitive inhibitor: Ki=IC50/(1+[S]/Km)
# T1 sequence (P14780 107-444 limits assumed): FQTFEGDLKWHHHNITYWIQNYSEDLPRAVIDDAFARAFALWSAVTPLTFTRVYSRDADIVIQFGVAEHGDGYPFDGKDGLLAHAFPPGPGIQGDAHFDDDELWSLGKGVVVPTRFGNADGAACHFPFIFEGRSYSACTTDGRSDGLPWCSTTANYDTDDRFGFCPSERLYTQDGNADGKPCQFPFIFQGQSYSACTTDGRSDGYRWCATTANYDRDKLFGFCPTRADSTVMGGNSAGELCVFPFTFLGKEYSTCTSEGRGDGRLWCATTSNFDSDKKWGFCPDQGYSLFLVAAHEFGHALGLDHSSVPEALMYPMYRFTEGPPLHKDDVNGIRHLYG
row,Structure (SMILES),IC50 [nM]
1,"COc1cc(COc2ccc(Sc3ccoc3C3NC(=O)NC3=O)cc2)cc(OC)c1 (centres unmarked) [IVg, 5-{3-[4-(3,5-dimethoxybenzoxy)phenylthio]fur-2yl}imidazoline-2,4-dione]",35800
2,"O=C1NC(=O)C(c2occc2Sc2ccc(OCc3cccc(C(F)(F)F)c3)cc2)N1 (centres unmarked) [IVq, 5-{3-[4-(3-Trifluoromethyl-benzyloxy)phenylthio]fur-2yl}imidazolidine-2,4-dione]",2880
3,"O=C1NC(=O)C(c2occc2Sc2ccc(OCc3ccccc3Cl)cc2)N1 (centres unmarked) [IVj, 5-{3-[4-(2-Chlorobenzyloxy)phenylthio]fur-2-yl}imidazolidine-2,4-dione]",1130

# Other lines, results leading:
row,IC50 [nM],Structure (SMILES)
1,3760,"COc1cccc(COc2ccc(Sc3ccoc3C3NC(=O)NC3=O)cc2)c1 (centres unmarked) [IVe, 5-{3-[4-(3-Methoxybenzyloxy)phenylthio]fur-2-yl}imidazolidine-2,4-dione]"
2,2950,"Cc1cccc(COc2ccc(Sc3ccoc3C3NC(=O)NC3=O)cc2)c1 (centres unmarked) [IVo, 5-{3-[4-(3-Methyl-benzyloxy)phenylthio]fur-2-yl}imidazolidine-2,4-dione]"
3,727,"O=C1NC(=O)C(c2occc2Sc2ccc(OCc3ccccc3)cc2)N1 (centres unmarked) [IVa, 5-[3-(4-Benzoxyphenylthio)fur-2-yl]imidazoline-2,4-dione]"

# Target: T2, MMP-13 (Homo sapiens, UniProt P45452)
# T2 construct: All the enzymes are recombinant human active domains from E. coli (Biomol); purchased Biomol; host or cells: E. coli
# Test: MMP inhibitory assay, fluorescent substrate, MMP-13
# Format: biochemical
# Settings: recombinant human active domain, substrate 4 uM, room temperature
# Protocol: as §1
row,Structure (SMILES),IC50 [nM]
1,"COc1cc(COc2ccc(Sc3ccoc3C3NC(=O)NC3=O)cc2)cc(OC)c1 (centres unmarked) [IVg, 5-{3-[4-(3,5-dimethoxybenzoxy)phenylthio]fur-2yl}imidazoline-2,4-dione]",16800
2,"O=C1NC(=O)C(c2occc2Sc2ccc(OCc3cccc(C(F)(F)F)c3)cc2)N1 (centres unmarked) [IVq, 5-{3-[4-(3-Trifluoromethyl-benzyloxy)phenylthio]fur-2yl}imidazolidine-2,4-dione]",2060
3,"O=C1NC(=O)C(c2occc2Sc2ccc(OCc3ccccc3Cl)cc2)N1 (centres unmarked) [IVj, 5-{3-[4-(2-Chlorobenzyloxy)phenylthio]fur-2-yl}imidazolidine-2,4-dione]",2410

# More lines, in order of falling IC50, values ahead:
row,IC50 [nM],Structure (SMILES)
1,2440,"COc1cccc(COc2ccc(Sc3ccoc3C3NC(=O)NC3=O)cc2)c1 (centres unmarked) [IVe, 5-{3-[4-(3-Methoxybenzyloxy)phenylthio]fur-2-yl}imidazolidine-2,4-dione]"
2,1950,"Cc1cccc(COc2ccc(Sc3ccoc3C3NC(=O)NC3=O)cc2)c1 (centres unmarked) [IVo, 5-{3-[4-(3-Methyl-benzyloxy)phenylthio]fur-2-yl}imidazolidine-2,4-dione]"
3,1070,"O=C1NC(=O)C(c2occc2Sc2ccc(OCc3ccccc3)cc2)N1 (centres unmarked) [IVa, 5-[3-(4-Benzoxyphenylthio)fur-2-yl]imidazoline-2,4-dione]"
4,707,"O=C1NC(=O)C(c2occc2Sc2ccc(OCc3ccc(-c4ccccc4)cc3)cc2)N1 (centres unmarked) [IVc, 5-{3-[4-(4-biphenylmethoxy)phenylthio]fur-2-yl}imidazoline-2,4-dione]"

# Target: T3, MMP-2 (Homo sapiens, UniProt P08253)
# T3 construct: All the enzymes are recombinant human active domains from E. coli (Biomol); purchased Biomol; host or cells: E. coli
# Test: MMP inhibitory assay, fluorescent substrate, MMP-2
# Format: biochemical
# Settings: recombinant human active domain, substrate 4 uM, room temperature
# Protocol: as §1
# T3 sequence (P08253 110-446 limits assumed): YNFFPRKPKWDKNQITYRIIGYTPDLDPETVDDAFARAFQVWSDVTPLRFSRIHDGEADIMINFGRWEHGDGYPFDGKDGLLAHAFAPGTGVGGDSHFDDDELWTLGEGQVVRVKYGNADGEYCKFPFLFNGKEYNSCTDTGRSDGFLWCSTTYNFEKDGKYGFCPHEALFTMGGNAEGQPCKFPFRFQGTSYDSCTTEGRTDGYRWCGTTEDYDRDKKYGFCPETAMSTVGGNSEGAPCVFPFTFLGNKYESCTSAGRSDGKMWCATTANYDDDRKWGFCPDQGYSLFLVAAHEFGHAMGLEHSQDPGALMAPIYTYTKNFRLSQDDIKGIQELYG
row,Structure (SMILES),IC50 [nM]
1,"O=C1NC(=O)C(c2occc2Sc2ccc(OCc3cccc(C(F)(F)F)c3)cc2)N1 (centres unmarked) [IVq, 5-{3-[4-(3-Trifluoromethyl-benzyloxy)phenylthio]fur-2yl}imidazolidine-2,4-dione]",2130
2,"O=C1NC(=O)C(c2occc2Sc2ccc(OCc3ccccc3Cl)cc2)N1 (centres unmarked) [IVj, 5-{3-[4-(2-Chlorobenzyloxy)phenylthio]fur-2-yl}imidazolidine-2,4-dione]",1840

# Results, then the compound that gave them:
row,IC50 [nM],Structure (SMILES)
1,2010,"COc1cccc(COc2ccc(Sc3ccoc3C3NC(=O)NC3=O)cc2)c1 (centres unmarked) [IVe, 5-{3-[4-(3-Methoxybenzyloxy)phenylthio]fur-2-yl}imidazolidine-2,4-dione]"
2,1110,"Cc1cccc(COc2ccc(Sc3ccoc3C3NC(=O)NC3=O)cc2)c1 (centres unmarked) [IVo, 5-{3-[4-(3-Methyl-benzyloxy)phenylthio]fur-2-yl}imidazolidine-2,4-dione]"
3,447,"O=C1NC(=O)C(c2occc2Sc2ccc(OCc3ccccc3)cc2)N1 (centres unmarked) [IVa, 5-[3-(4-Benzoxyphenylthio)fur-2-yl]imidazoline-2,4-dione]"
4,1740,"O=C1NC(=O)C(c2occc2Sc2ccc(OCc3ccc(-c4ccccc4)cc3)cc2)N1 (centres unmarked) [IVc, 5-{3-[4-(4-biphenylmethoxy)phenylthio]fur-2-yl}imidazoline-2,4-dione]"

# Target: T4, MMP-12 (Homo sapiens, UniProt P39900)
# T4 construct: All the enzymes are recombinant human active domains from E. coli (Biomol); purchased Biomol; host or cells: E. coli
# Test: MMP inhibitory assay, fluorescent substrate, MMP-12
# Format: biochemical
# Settings: recombinant human active domain, substrate 4 uM, room temperature
# Protocol: as §1
# In the assay conditions, [S](4 uM) is smaller than Km (20 uM for MMP-12). So Ki equal to IC50/1.2, which is little smaller than IC50, or roughly equal to IC50.
# T4 sequence (P39900 106-263 limits assumed): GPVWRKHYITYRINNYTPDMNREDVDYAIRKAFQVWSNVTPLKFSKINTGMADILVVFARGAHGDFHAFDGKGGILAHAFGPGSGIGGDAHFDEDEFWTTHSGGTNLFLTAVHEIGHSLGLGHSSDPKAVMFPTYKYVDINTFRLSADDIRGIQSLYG
row,Structure (SMILES),IC50 [nM]
1,"COc1cc(COc2ccc(Sc3ccoc3C3NC(=O)NC3=O)cc2)cc(OC)c1 (centres unmarked) [IVg, 5-{3-[4-(3,5-dimethoxybenzoxy)phenylthio]fur-2yl}imidazoline-2,4-dione]",264
2,"O=C1NC(=O)C(c2occc2Sc2ccc(OCc3cccc(C(F)(F)F)c3)cc2)N1 (centres unmarked) [IVq, 5-{3-[4-(3-Trifluoromethyl-benzyloxy)phenylthio]fur-2yl}imidazolidine-2,4-dione]",34
3,"O=C1NC(=O)C(c2occc2Sc2ccc(OCc3ccccc3Cl)cc2)N1 (centres unmarked) [IVj, 5-{3-[4-(2-Chlorobenzyloxy)phenylthio]fur-2-yl}imidazolidine-2,4-dione]",57

# Further lines, results first:
row,IC50 [nM],Structure (SMILES)
1,19,"COc1cccc(COc2ccc(Sc3ccoc3C3NC(=O)NC3=O)cc2)c1 (centres unmarked) [IVe, 5-{3-[4-(3-Methoxybenzyloxy)phenylthio]fur-2-yl}imidazolidine-2,4-dione]"
2,11,"Cc1cccc(COc2ccc(Sc3ccoc3C3NC(=O)NC3=O)cc2)c1 (centres unmarked) [IVo, 5-{3-[4-(3-Methyl-benzyloxy)phenylthio]fur-2-yl}imidazolidine-2,4-dione]"
3,13,"O=C1NC(=O)C(c2occc2Sc2ccc(OCc3ccccc3)cc2)N1 (centres unmarked) [IVa, 5-[3-(4-Benzoxyphenylthio)fur-2-yl]imidazoline-2,4-dione]"
4,131,"O=C1NC(=O)C(c2occc2Sc2ccc(OCc3ccc(-c4ccccc4)cc3)cc2)N1 (centres unmarked) [IVc, 5-{3-[4-(4-biphenylmethoxy)phenylthio]fur-2-yl}imidazoline-2,4-dione]"

# Target: T5, MMP-7 (Homo sapiens, UniProt P09237)
# T5 construct: All the enzymes are recombinant human active domains from E. coli (Biomol); purchased Biomol; host or cells: E. coli
# T5 sequence (P09237 95-267): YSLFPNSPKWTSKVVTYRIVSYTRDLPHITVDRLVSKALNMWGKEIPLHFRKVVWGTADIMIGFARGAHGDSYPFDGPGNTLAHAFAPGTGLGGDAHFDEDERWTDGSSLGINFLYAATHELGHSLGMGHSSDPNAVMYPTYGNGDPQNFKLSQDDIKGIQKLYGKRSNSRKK
# Test: MMP inhibitory assay, fluorescent substrate, MMP-7
# Format: biochemical
# Settings: recombinant human active domain, substrate 4 uM, room temperature
# Protocol: as §1
row,IC50 [nM],Structure (SMILES)
1,46700,"Cc1cccc(COc2ccc(Sc3ccoc3C3NC(=O)NC3=O)cc2)c1 (centres unmarked) [IVo, 5-{3-[4-(3-Methyl-benzyloxy)phenylthio]fur-2-yl}imidazolidine-2,4-dione]"
2,1040,"O=C1NC(=O)C(c2occc2Sc2ccc(OCc3ccc(-c4ccccc4)cc3)cc2)N1 (centres unmarked) [IVc, 5-{3-[4-(4-biphenylmethoxy)phenylthio]fur-2-yl}imidazoline-2,4-dione]"
3,63700,"O=C1NC(=O)C(c2occc2Sc2ccc(OCc3ccccc3)cc2)N1 (centres unmarked) [IVa, 5-[3-(4-Benzoxyphenylthio)fur-2-yl]imidazoline-2,4-dione]"
4,27400,"COc1cccc(COc2ccc(Sc3ccoc3C3NC(=O)NC3=O)cc2)c1 (centres unmarked) [IVe, 5-{3-[4-(3-Methoxybenzyloxy)phenylthio]fur-2-yl}imidazolidine-2,4-dione]"

# Target: T6, MMP-1 (Homo sapiens, UniProt P03956)
# T6 construct: All the enzymes are recombinant human active domains from E. coli (Biomol); purchased Biomol; host or cells: E. coli
# T6 sequence (P03956 100-269 limits assumed): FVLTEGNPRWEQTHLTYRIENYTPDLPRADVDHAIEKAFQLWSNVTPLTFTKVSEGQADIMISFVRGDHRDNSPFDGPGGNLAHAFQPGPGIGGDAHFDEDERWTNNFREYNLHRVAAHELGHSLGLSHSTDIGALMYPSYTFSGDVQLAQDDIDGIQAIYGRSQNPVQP
# Test: MMP inhibitory assay, fluorescent substrate, MMP-1
# Format: biochemical
# Settings: recombinant human active domain, substrate 4 uM, room temperature
# Protocol: as §1
row,Structure (SMILES),IC50 [nM]
1,"COc1cc(COc2ccc(Sc3ccoc3C3NC(=O)NC3=O)cc2)cc(OC)c1 (centres unmarked) [IVg, 5-{3-[4-(3,5-dimethoxybenzoxy)phenylthio]fur-2yl}imidazoline-2,4-dione]",> 40000
2,"O=C1NC(=O)C(c2occc2Sc2ccc(OCc3cccc(C(F)(F)F)c3)cc2)N1 (centres unmarked) [IVq, 5-{3-[4-(3-Trifluoromethyl-benzyloxy)phenylthio]fur-2yl}imidazolidine-2,4-dione]",> 40000
3,"O=C1NC(=O)C(c2occc2Sc2ccc(OCc3ccccc3Cl)cc2)N1 (centres unmarked) [IVj, 5-{3-[4-(2-Chlorobenzyloxy)phenylthio]fur-2-yl}imidazolidine-2,4-dione]",> 40000

# Continued, values first:
row,IC50 [nM],Structure (SMILES)
1,> 40000,"COc1cccc(COc2ccc(Sc3ccoc3C3NC(=O)NC3=O)cc2)c1 (centres unmarked) [IVe, 5-{3-[4-(3-Methoxybenzyloxy)phenylthio]fur-2-yl}imidazolidine-2,4-dione]"
2,> 40000,"Cc1cccc(COc2ccc(Sc3ccoc3C3NC(=O)NC3=O)cc2)c1 (centres unmarked) [IVo, 5-{3-[4-(3-Methyl-benzyloxy)phenylthio]fur-2-yl}imidazolidine-2,4-dione]"
3,> 40000,"O=C1NC(=O)C(c2occc2Sc2ccc(OCc3ccccc3)cc2)N1 (centres unmarked) [IVa, 5-[3-(4-Benzoxyphenylthio)fur-2-yl]imidazoline-2,4-dione]"
4,> 40000,"O=C1NC(=O)C(c2occc2Sc2ccc(OCc3ccc(-c4ccccc4)cc3)cc2)N1 (centres unmarked) [IVc, 5-{3-[4-(4-biphenylmethoxy)phenylthio]fur-2-yl}imidazoline-2,4-dione]"

# Target: T7, MMP-3 (Homo sapiens, UniProt P08254)
# T7 construct: All the enzymes are recombinant human active domains from E. coli (Biomol); purchased Biomol; host or cells: E. coli
# Test: MMP inhibitory assay, fluorescent substrate, MMP-3
# Format: biochemical
# Settings: recombinant human active domain, substrate 4 uM, room temperature
# Protocol: as §1
# T7 sequence (P08254 100-272 limits assumed): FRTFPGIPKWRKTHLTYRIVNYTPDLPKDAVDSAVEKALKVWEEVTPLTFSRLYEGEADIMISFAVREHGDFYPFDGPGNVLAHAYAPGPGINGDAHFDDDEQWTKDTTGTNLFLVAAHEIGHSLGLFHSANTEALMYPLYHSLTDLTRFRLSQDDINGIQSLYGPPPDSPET
row,Structure (SMILES),IC50 [nM]
1,"COc1cc(COc2ccc(Sc3ccoc3C3NC(=O)NC3=O)cc2)cc(OC)c1 (centres unmarked) [IVg, 5-{3-[4-(3,5-dimethoxybenzoxy)phenylthio]fur-2yl}imidazoline-2,4-dione]",7950
2,"O=C1NC(=O)C(c2occc2Sc2ccc(OCc3cccc(C(F)(F)F)c3)cc2)N1 (centres unmarked) [IVq, 5-{3-[4-(3-Trifluoromethyl-benzyloxy)phenylthio]fur-2yl}imidazolidine-2,4-dione]",3310
3,"O=C1NC(=O)C(c2occc2Sc2ccc(OCc3ccccc3Cl)cc2)N1 (centres unmarked) [IVj, 5-{3-[4-(2-Chlorobenzyloxy)phenylthio]fur-2-yl}imidazolidine-2,4-dione]",1090

# Other lines, results leading:
row,IC50 [nM],Structure (SMILES)
1,3620,"COc1cccc(COc2ccc(Sc3ccoc3C3NC(=O)NC3=O)cc2)c1 (centres unmarked) [IVe, 5-{3-[4-(3-Methoxybenzyloxy)phenylthio]fur-2-yl}imidazolidine-2,4-dione]"
2,1350,"Cc1cccc(COc2ccc(Sc3ccoc3C3NC(=O)NC3=O)cc2)c1 (centres unmarked) [IVo, 5-{3-[4-(3-Methyl-benzyloxy)phenylthio]fur-2-yl}imidazolidine-2,4-dione]"
3,2100,"O=C1NC(=O)C(c2occc2Sc2ccc(OCc3ccccc3)cc2)N1 (centres unmarked) [IVa, 5-[3-(4-Benzoxyphenylthio)fur-2-yl]imidazoline-2,4-dione]"
4,35900,"O=C1NC(=O)C(c2occc2Sc2ccc(OCc3ccc(-c4ccccc4)cc3)cc2)N1 (centres unmarked) [IVc, 5-{3-[4-(4-biphenylmethoxy)phenylthio]fur-2-yl}imidazoline-2,4-dione]"
